Results from patent US6652633B2, “Fire retardant” (Arch Wood Protection, Inc., priority 2001, dated 2003).

Experiment: potentiometric titration against 0.1 N NaOH with mannitol complexation (equivalence points)
Format: physicochemical
Conditions: aqueous GUP/boric acid solution complexed with mannitol; potentiometric titration of GUP/boric acid solutions, samples complexed with mannitol; read-out: pKa (equivalence point)
Experimental: The mixture was heated to approximately 48° C. to dissolve all of the solids, and a sample for analysis taken. The temperature of the solution was then raised and maintained between 70° C. and 90° C. for 3.5 hours. Samples of the solution were analyzed by potentiometric titration every hour, and at the end of the 3.5 hour reaction period.
The samples were titrated against approximately 0.1 N NaOH (standardized against a potassium hydrogen phthalate standard from NIST). Because the pKa of GUP is very close to that for boric acid, the samples were each complexed with 10 g of mannitol to form a boric acid ester having a lower pKa that is more easily distinguishable from that of GUP. The results are given in Table 1,below, and plotted on FIG. 1.
Approximately 0.1000 g of solid product was combined with about 10 g mannitol and titrated against 0.1 N NaOH. The mannitol was added to react with the boric acid to for a borate ester, which has a much lower equivalence point than GUP. […] The loss in yield was attributable to the short reaction time allowed in this example. A kinetic analysis was subsequently undertaken, and it was determined that an increase in GUP yield could be obtained by increasing the reaction time, as indicated in Table 4 below.

N=C(N)NC(N)=O [GUP, guanylurea phosphate]
pKa: 7.25
